Measured values: US11866460B2 (priority 2015, dated 2024)
pEC50, pIC50: −log10 of the molar value. ≈ marks a conversion by molar mass, not a printed value. Where “and” joins values, the source holds several entries; their conditions need not be identical. Equal entries are not always repeated. Where two headings read alike, the source gives them in different places. Where a SMILES comes first, the peptide text is derived from it. Where no end group is shown, it is not given here.

Experiments:
[1] = system: human PBMCs
[2] = system: HIV-1US/92/727; settings: human PBMCs
[3] = system: HSV-1; assay: microbe, parasite or virus in culture; settings: Human alphaherpesvirus 1, Vero
[4] = system: Clostridium difficile; assay: microbe, parasite or virus in culture; type: cell-based; settings: Clostridioides difficile, 48 h
[5] = system: Propionibacterium acnes; assay: microbe, parasite or virus in culture; type: cell-based; settings: Cutibacterium acnes, 48 h
[6] = system: Haemophilus influenzae; assay: microbe, parasite or virus in culture; type: cell-based
[7] = system: ZIKV FSS 13025; settings: read-out: IC50, yield reduction; Vero cells, day 3
[8] = in vitro; settings: African green monkey, CC50
[9] = system: ZIKV FSS 13025; settings: read-out: IC50 (PRNT50), plaque reduction; Vero cells, day 4
[10] = system: ME180 cells
[11] = system: HEC1A cells
[12] = system: Ca Ski cells
[13] = system: Caco-2 cells
[14] = system: HIV-1RF; type: cell-based
[15] = system: Vero cells, erythrocyte, epithelial and endometrial cell lines
[16] = in vitro; settings: Lactobacillus acidophilus
[17] = in vitro; settings: Lactobacillus jensenii
[18] = system: Streptococcus pyogenes
[19] = system: human erythrocyte cells
[20] = system: Lactobacillus acidophilus
[21] = system: Staphylococcus aureus (MSSA)
[22] = system: Enterococcus faecium (VRE)
[23] = system: aerobic Gram-positive bacterial isolates (S. aureus, enterococci, streptococci, and B. anthracis)
[24] = system: DENV-1 PRS41393; settings: -1 PRS41393, 0 h
[25] = system: Marburg virus (MARV)
[26] = system: Enterococcus faecalis (VRE)
[27] = system: Vero cells; settings: African green monkey
[28] = system: panel of enveloped viruses (DENV, JEV, YFV, CHIKV and others); settings: panel of enveloped viruses (, JEV, YFV, CHIKV and others)
[29] = in vitro; settings: Lactobacillus crispatus
[30] = in vitro; settings: human, TC50
[31] = system: CHIKV 181/25; settings: 0 h
[32] = system: Ebola virus (EBOV)
[33] = system: Streptococcus agalactiae
[34] = in vitro; settings: dog
[35] = system: Enterococcus faecalis (VSE)
[36] = system: Streptococcus salivarius
[37] = system: JUNV Candid #1; settings: 0 h
[38] = system: Streptococcus pneumoniae (PSSP)
[39] = system: Bacillus anthracis Sterne
[40] = system: VACV NYCBH; settings: 0 h
[41] = system: VEEV TC-83; settings: 0 h
[42] = system: Streptococcus pneumoniae (PRSP)
[43] = system: Lactobacillus crispatus
[44] = system: Lactobacillus jensenii
[45] = 0.01 μg/mL during exposure, Day 3
[46] = 0.01 μg/mL during exposure, Day 6
[47] = 0.1 μg/mL during exposure, Day 3
[48] = 0.1 μg/mL during exposure, Day 6
[49] = 10 μg/mL during exposure, Day 3
[50] = 10 μg/mL during exposure, Day 6
[51] = 100 μg/mL during exposure, Day 3
[52] = 100 μg/mL during exposure, Day 6
[53] = 1000 μg/mL during exposure, Day 3
[54] = 1000 μg/mL during exposure, Day 6

Compound: Cc1cn([C@H]2C[C@H](N=[N+]=[N-])[C@@H](CO)O2)c(=O)[nH]c1=O [AZT]
- CC50 [1]: > 1000 nM
- TI (TC50/EC50) [2]: >342.5
- pEC50 ([2]; 7 days): 8.54 and 8.53

Compound: Nc1nc2c(ncn2COCCO)c(=O)[nH]1 [Acyclovir]
- pEC50 [3]: 5.55

Compound: CCC[C@@H]1C[C@@H](C(=O)N[C@@H]([C@H]2O[C@H](SC)[C@H](O)[C@@H](O)[C@H]2O)[C@H](C)Cl)N(C)C1 [Clindamycin]
- MIC [4]: 1 µg/mL (≈ 2.35 µM)
- MIC [5]: ≤ 0.06 µg/mL
- MIC [6]: 4 µg/mL (≈ 9.41 µM)

Compound: CC(C)C[C@@H](NC(=O)[C@@H](CCCCN)NC(=O)[C@@H](CO)NC(=O)[C@@H](CCC(N)=O)NC(=O)[C@@H](CC(C)C)NC(=O)[C@@H](Cc1c[nH]c2ccccc12)NC(=O)[C@H](NC(=O)[C@@H](Cc1c[nH]c2ccccc12)NC(=O)[C@H](NC(=O)[C@@H](CC(=O)O)NC(=O)[C@@H](CCCNC(=N)N)NC(=O)[C@@H](CC(C)C)NC(=O)[C@@H](Cc1c[nH]c2ccccc12)NC(=O)[C@@H](CO)NC(=O)CNC(=O)[C@H](N)CO)C(C)C)[C@H](C)O)C(=O)O [TSG001 D-isomer] (HELM PEPTIDE1{[dS].G.[dS].[dW].[dL].[dR].[dD].[dV].[dW].[dT].[dW].[dL].[dQ].[dS].[dK].[dL]}$$$$V2.0; N-terminus and C-terminus assumed)
- pIC50 [7]: 6.19
- CC50 [8]: 11.7 µM
- pIC50 [9]: 6.31

Compound: Nonoxynol-9 [Nonoxynol 9]
- TC50 [10]: 74.0 µg/mL
- TC50 [11]: 62.9 µg/mL
- TC50 [12]: 61.3 µg/mL
- TC50 [13]: 55.1 µg/mL
- Log Reduction in Virus Titer [14, 45]: 0.3 log
- TCID50 Sample - Virus [14, 45]: 5
- Log Reduction in Virus Titer [14, 46]: 0.5 log
- TCID50 Sample - Virus [14, 46]: 6
- Log Reduction in Virus Titer [14, 47]: 0.3 log
- TCID50 Sample - Virus [14, 47]: 5
- Log Reduction in Virus Titer [14, 48]: 0.7 log
- TCID50 Sample - Virus [14, 48]: 5.8
- Log Reduction in Virus Titer ([14]; 1 μg/mL during exposure, Day 3): 0.3 log
- TCID50 Sample - Virus ([14]; 1 μg/mL during exposure, Day 3): 5
- Log Reduction in Virus Titer ([14]; 1 μg/mL during exposure, Day 6): 0 log
- TCID50 Sample - Virus ([14]; 1 μg/mL during exposure, Day 6): ≥6.6
- Log Reduction in Virus Titer [14, 49]: 0 log
- TCID50 Sample - Virus [14, 49]: 5.3
- Log Reduction in Virus Titer [14, 50]: 0 log
- TCID50 Sample - Virus [14, 50]: ≥6.6
- Log Reduction in Virus Titer [14, 51]: ≥3.3 log
- TCID50 Sample - Virus [14, 51]: ≤2.0
- Log Reduction in Virus Titer [14, 52]: 2.9 log
- TCID50 Sample - Virus [14, 52]: 3.6
- Log Reduction in Virus Titer [14, 53]: ≥2.8 log
- TCID50 Sample - Virus [14, 53]: ≤2.5
- Log Reduction in Virus Titer [14, 54]: ≥2.7 log
- TCID50 Sample - Virus [14, 54]: ≤3.8

Compound: SGSWLRDVWTWLQSKL [TSG001]
- cytotoxicity [15]: minimal cytotoxicity
- CC50 [16]: > 50 µM
- CC50 [17]: > 50 µM
- MIC [18]: 4 µM
- CC50 ([10]; human): 37 µM
- MHC [19]: 50 µM
- TC50 [20]: non-toxic
- MIC [21]: 2 µM
- MIC [22]: 2 µM
- MICs, range over isolates [23]: 2 to 16 µg/mL
- pEC50 [24]: 5.47
- pEC50 [25]: 6.20
- MIC [26]: 4 µM
- CC50 [27]: 153 µM
- pEC50 [28]: > 5.52
- CC50 [29]: > 50 µM
- CC50 [30]: 37 µM
- pEC50 [31]: 5.65
- pEC50 [32]: 6.03
- MIC [33]: 8 µM
- CC50 [34]: > 200 µM
- MIC [35]: 2 µM
- MIC [36]: 4 µM
- pEC50 [37]: < 4.12
- TI (TC50/EC50) [2]: 8.93
- MIC [38]: 8 µM
- MIC [39]: 1 µM
- pEC50 [40]: < 4.90
- pEC50 [41]: < 4.90
- MIC [42]: 8 µM
- TC50 [43]: non-toxic
- TC50 [44]: non-toxic
